{"source": "paper PMC2630366", "about": "(The Journal of pharmacology and experimental therapeutics, 2008)", "key": {"[1]": {"test_system": "mice", "details": "50 mgs/kg, ref Okamura et al., 2008; cited from earlier work"}, "[2]": {"details": "ref Okamura et al., 2008; cited from earlier work"}, "[3]": {"test_system": "mice", "details": "administered into the amygdala in mice; ref Jungling et al., 2008; cited from earlier work"}, "[4]": {"test_system": "Swiss mice", "test": "Mouse righting reflex recovery test, Swiss mice", "format": "in vivo", "details": "diazepam 15 mg/kg i.p., 16 mice per group"}, "[5]": {"test_system": "NPSR^+/+ mice", "test": "Mouse righting reflex recovery test, NPSR^+/+ mice", "format": "in vivo", "details": "diazepam 15 mg/kg i.p."}, "[6]": {"test_system": "NPSR^-/- mice", "test": "Mouse righting reflex recovery test, NPSR^-/- mice", "format": "in vivo", "details": "diazepam 15 mg/kg i.p."}, "[7]": {"biological_target": "T1, native hPAR2 (Homo sapiens, UniProt P55085)", "T1 sequence (P55085 26-397)": "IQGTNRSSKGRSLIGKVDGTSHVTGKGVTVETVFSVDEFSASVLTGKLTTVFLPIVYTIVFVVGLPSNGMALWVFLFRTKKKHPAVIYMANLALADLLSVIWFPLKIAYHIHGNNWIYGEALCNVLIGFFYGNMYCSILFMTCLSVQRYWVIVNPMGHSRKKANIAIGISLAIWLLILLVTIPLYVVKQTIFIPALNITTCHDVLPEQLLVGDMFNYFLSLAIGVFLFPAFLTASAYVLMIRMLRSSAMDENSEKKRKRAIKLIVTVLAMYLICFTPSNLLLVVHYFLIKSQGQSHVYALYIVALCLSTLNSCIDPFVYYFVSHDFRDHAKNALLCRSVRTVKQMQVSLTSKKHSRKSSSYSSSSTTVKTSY", "test": "Selectivity: calcium mobilization, native hPAR2 in A549 cells", "format": "cell-based"}}, "note": "Read-outs that look alike come from different tables or passages of the source. Where no end group is shown, it is not given here.", "data": [{"compound": "O=C(NCc1ccc(F)cc1)N1CCN2C(=O)OC(c3ccccc3)(c3ccccc3)C2C1", "note": "(centres unmarked) [SHA 68, 3-oxo-1,1-diphenyl-tetrahydro-oxazolo[3,4-a]pyrazine-7-carboxylic acid 4-fluoro-benzylamide]", "values": [{"measurement": "effect on NPS-stimulated locomotion", "setting": "[1]", "result": "able to partially counteract the stimulatory effects of NPS on locomotion"}, {"measurement": "blood brain barrier penetration", "setting": "[2]", "result": "limited blood brain barrier penetration"}, {"measurement": "effect on anxiety and extinction of conditioned fear responses", "setting": "[3]", "result": "exerts functionally opposing responses"}]}, {"compound": "CN1C(=O)CN=C(c2ccccc2)c2cc(Cl)ccc21", "note": "[diazepam]", "values": [{"measurement": "percent of animals losing the righting reflex", "setting": "[4]", "result": 92, "unit": "%"}, {"measurement": "percent of animals losing the righting reflex", "setting": "[5]; 10-12 mice per group", "result": 100, "unit": "%"}, {"measurement": "sleeping time (time to regain the RR)", "setting": "[5]; mean ± sem of 10-12 mice", "result": "180 ± 18", "unit": "min"}, {"measurement": "percent of animals losing the righting reflex", "setting": "[6]; 10-12 mice per group", "result": 100, "unit": "%"}, {"measurement": "sleeping time (time to regain the RR)", "setting": "[6]; mean ± sem of 10-12 mice", "result": "211 ± 19", "unit": "min"}]}, {"compound": "SLIGKV-NH2 [SLIGKV-NH2]", "values": [{"measurement": "EC50", "setting": "[7]", "result": 21.9, "unit": "µM"}, {"measurement": "Emax", "setting": "[7]; A549, read-out: Emax, control", "result": "449 ± 25", "unit": "%"}, {"measurement": "Emax", "setting": "[7]; A549, read-out: Emax, in presence of [D-Cys(tBu)^5]NPS 10 μM", "result": "433 ± 37", "unit": "%"}]}]}
